Laboratory results as given in US20010046662A1, “Method of inactivating pathogens in a red blood cell-containing composition” (priority 2000, published 2001).
“And” between values parts separate entries of the source, which are not always exact repeats. Equal entries are not always repeated.

Key:
VSV = assay type: cell-based, vesicular stomatitis virus
red cells = test: Red cell hemolysis at day 42 for DMMB+light treated samples in a flow system; conditions: for Hemolysis (%), day 42: approximately 3.5 μM DMMB, no blocker, stored at 1-6° C.
red blood cells = conditions: with type 1/type 2 quenchers, optimized conditions; cited from earlier work

Cc1cc(N(C)C)cc2[s+]c3cc(N(C)C)cc(C)c3nc12 [DMMB, 1,9-dimethylmethylene blue]
increase in VSV inactivation with greater light fluences (VSV): 50% | Hemolysis (%), day 42 (red cells; light fluence 226 mJ/cm^2): 2.8% and 2.84% | Hemolysis (%), day 42 (red cells; light fluence 889 mJ/cm^2): 14.5% and 14.53% | Hemolysis (%), day 42 (red cells; light fluence 1597 mJ/cm^2): 12.10% | increase in hemolysis with greater light fluences (red cells; samples lacking riboflavin, 2.8 to 14.5%): 500%

Cc1cc2nc3c(=O)[nH]c(=O)nc-3n(C[C@H](O)[C@H](O)[C@H](O)CO)c2cc1C [riboflavin, 7,8-dimethyl-10-ribitylisoalloxazine]
enhancement of VSV inactivation by addition of the blocker (VSV): > 4.1 log10

phthalocyanine 4
cells that hemolyze after 21 days of storage (red blood cells): about 2%
